# Tested on: T-type calcium channels in the thalamocortical circuit
# Experiment: Phase 1 sleep EEG in healthy volunteers (NREM sigma)
# Assay type: in vivo, human
# Settings: FIG. 12
# Protocol: This was a 2-part, Phase 1 double blind, placebo controlled trial to assess the safety, tolerability, PK, and PD (including the KSS, the KDT, the SQSQ and 24-hour EEG recordings), of single, ascending (Part A: 20, 40, and 60 mg)) and multiple, ascending (Part B: 20 and 40 mg for 8 days) doses of the 20 mg tablet (formulation 3) in healthy participants. […] Variability in Cmax and AUC increased with increasing dose following a single oral dose of the 20 mg tablet formulation (formulation 3).
# The T-type calcium channels expressed in the thalamus are critically involved in the generation and modulation of sleep spindles which are prominent thalamocortical oscillations during NREM sleep. Sleep spindles are detected in the EEG as the sigma frequency band (11-15 Hz) (FIG. 12).
smiles,measurement,value
CC(C)(C)NC(=O)CN1CCC(CNC(=O)c2cc(F)cc(Cl)c2)CC1 [the compound of formula (I)],"power in the sigma frequency band (11-15 Hz), NREM sleep EEG",decrease of power in the sigma frequency band
